Measured values reported in patent publication US20140094465A1, “Compounds as S-Nitrosoglutathione Reductase Inhibitors” (N30 PHARMACEUTICALS, INC., priority 2011, published 2014).

target: T1, S-nitrosoglutathione reductase (GSNOR) (Homo sapiens, UniProt P11766); experiment: GSNOR assay (inhibition of GSNOR activity, NADH absorbance at 340 nm); assay type: biochemical; details: GSNOR inhibitor activity, Tables 1-6; read-out: IC50 range
T1 construct: made in house; host or cells: E. coli
Method: Various compounds were tested in vitro for their ability to inhibit GSNOR activity.
GSNOR expression and purification is described in Biochemistry 2000, 39, 10720-10729.
Pre-cultures were grown from stabs of a GSNOR glycerol stock in 2XYT media containing 100 ug/ml ampicillin after an overnight incubation at 37° C. […] GSNOR expression was induced with 0.1% arabinose in an overnight incubation at 20° C.
E. coli cell paste was lysed by nitrogen cavitation and the clarified lysate purified by Ni affinity chromatography on an AKTA FPLC (Amersham Pharmacia). The column was eluted in 20 mM Tris pH 8.0/250 mM NaCl with a 0-500 mM imidazole gradient. Eluted GSNOR fractions containing the Smt-GSNOR fusion were digested overnight with Ulp-1 at 4° C. to remove the affinity tag then re-run on the Ni column under the same conditions. GSNOR was recovered in the flowthrough fraction and for crystallography is further purified by Q-Sepharose and Heparin flowthrough chromatography in 20 mM Tris pH 8.0, 1 mM DTT, 10 uM ZnSO4.
GSNOR assay: GSNO and enzyme/NADH Solutions are made up fresh each day. The solutions are filtered and allowed to warm to room temperature. GSNO solution: 100 mM NaPO4 (pH 7.4), 0.480 mM GSNO. 396 μL of GSNO Solution is added to a cuvette followed by 8 μL of test compound in DMSO (or DMSO only for full reaction control) and mixed with the pipette tip. Compounds to be tested are made up at a stock concentration of 10 mM in 100% DMSO. 2 fold serial dilutions are done in 100% DMSO. 8 μL of each dilution are added to an assay so that the final concentration of DMSO in the assay is 1%. The concentrations of compounds tested range from 100 to 0.003 μM. Enzyme/NADH solution: 100 mM NaPO4 (pH 7.4), 0.600 mM NADH, 1.0 μg/mL GSNO Reductase. 396 μL of the Enzyme/NADH solution is added to the cuvette to start the reaction. The cuvette is placed in the Cary 3E UV/Visible Spectrophotometer and the change in 340 nm absorbance/min at 25° C. is recorded for 3 minutes. The assays are done in triplicate for each compound concentration. IC50's for each compound are calculated using the standard curve analysis in the Enzyme Kinetics Module of SigmaPlot.
Final assay conditions: 100 mM NaPO4, pH 7.4, 0.240 mM GSNO, 0.300 mM NADH, 0.5 μg/mL GSNO Reductase, and 1% DMSO. Final volume: 800 μL/cuvette.

T1 sequence (P11766 whole entry): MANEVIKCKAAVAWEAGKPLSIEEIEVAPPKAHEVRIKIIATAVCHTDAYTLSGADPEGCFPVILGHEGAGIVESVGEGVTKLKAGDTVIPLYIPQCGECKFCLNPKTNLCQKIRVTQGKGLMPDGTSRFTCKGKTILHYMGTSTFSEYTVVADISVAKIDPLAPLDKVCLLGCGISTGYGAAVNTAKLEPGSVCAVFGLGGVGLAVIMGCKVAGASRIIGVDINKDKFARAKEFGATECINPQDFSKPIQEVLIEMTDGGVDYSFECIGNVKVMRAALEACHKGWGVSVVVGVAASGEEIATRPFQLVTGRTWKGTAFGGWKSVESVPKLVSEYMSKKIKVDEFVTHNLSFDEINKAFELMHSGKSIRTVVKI

| Structure (SMILES) | IC50 |
| --- | --- |
| O=c1nc(-c2ccc(-c3ccc4cc(O)ccc4n3)cc2F)[nH]o1 [Compound I-20] | < 100 nM |
| O=C(O)c1ccc(-c2ccc3cc(O)ccc3n2)c(C(F)(F)F)c1 [Compound I-30] | < 100 nM |
| O=c1nc(-c2ccc(-c3ccc4cc(O)ccc4n3)c(F)c2)[nH]o1 [Compound I-21] | < 100 nM |
| O=c1c(Oc2ccc(O)c([N+](=O)[O-])c2)c(C(F)(F)F)oc2cc(O)ccc12 [Compound V-17, 7-hydroxy-3-(4-hydroxy-3-nitrophenoxy)-2-(trifluoromethyl)-4H-chromen-4-one] | 100 to 1000 nM |
| O=C(O)c1ccc(Oc2c(C(F)(F)F)oc3cc(O)ccc3c2=O)cc1O [Compound V-13, 2-hydroxy-4-(7-hydroxy-4-oxo-2-(trifluoromethyl)-4H-chromen-3-yloxy)benzoic acid] | 100 to 1000 nM |
| O=C(O)c1ccc(CC(=O)c2ccc(O)cc2Cl)c(F)c1 [VI-6, 4-(2-(2-chloro-4-hydroxyphenyl)-2-oxoethyl)-3-fluorobenzoic acid] | < 100 nM |
| O=C(O)c1ccc(/C(=C\C(F)(F)F)C(=O)c2ccc(O)cc2O)cc1 [VI-17, (E)-4-(1-(2,4-dihydroxyphenyl)-4,4,4-trifluoro-1-oxobut-2-en-2-yl)benzoic acid] | < 100 nM |
| O=C(C[C@H]1CC[C@H](C(=O)O)CC1)c1ccc(O)cc1O [VI-1, (trans)-4-(2-(2,4-dihydroxyphenyl)-2-oxoethyl)cyclohexanecarboxylic acid] | 100 to 1000 nM |
| O=C(O)C1CCN(c2ncc3cc(O)ccc3n2)CC1 [II-7] | 1000 to 10000 nM |
| O=C(O)c1ccc(-c2cc3ccc(O)cc3cc2O)cc1 [III-25, 4-(3,6-dihydroxynaphthalen-2-yl)benzoic acid] | 1000 to 10000 nM |
| O=C(O)c1ccc(CC(=O)c2cc(F)c(O)c(F)c2)c(F)c1 [VI-8, 4-(2-(3,5-difluoro-4-hydroxyphenyl)-2-oxoethyl)-3-fluorobenzoic acid] | 100 to 1000 nM |
| O=C(O)c1ccc(-c2ncc3cc(O)ccc3n2)cc1 [II-1] | < 100 nM |
| O=c1c(-c2ccc(O)c([N+](=O)[O-])c2)c(C(F)(F)F)oc2cc(O)ccc12 [IV-45, 7-hydroxy-3-(4-hydroxy-3-nitrophenyl)-2-(trifluoromethyl)-4H-chromen-4-one] | < 100 nM |
| O=C(O)c1ccc(CC(=O)c2ccc(O)c(F)c2F)c(F)c1 [VI-3, 4-(2-(2,3-difluoro-4-hydroxyphenyl)-2-oxoethyl)-3-fluorobenzoic acid] | < 100 nM |
| COc1cc(-c2ccc3cc(O)ccc3c2)ccc1C(=O)O [III-34, 4-(6-hydroxynaphthalen-2-yl)-2-methoxybenzoic acid] | 100 to 1000 nM |
| O=C(O)C1CCN(c2nc3ccc(O)cc3nc2C(F)(F)F)CC1 [II-11] | < 100 nM |
| O=[N+]([O-])c1cc(-c2ccc3cc(O)ccc3c2)ccc1O [III-36, 6-(4-hydroxy-3-nitrophenyl)naphthalen-2-ol] | 100 to 1000 nM |
| N#Cc1cc2cc(O)ccc2nc1-c1ccc(C(=O)O)cc1 [Compound I-52, 4-(3-cyano-6-hydroxyquinolin-2-yl)benzoic acid] | < 100 nM |
| O=C(O)c1ccc(-c2ccc3c(Br)c(O)ccc3n2)cc1 [Compound I-45, 4-(5-bromo-6-hydroxyquinolin-2-yl)benzoic acid] | 100 to 1000 nM |

| Structure (SMILES) | IC50 |
| --- | --- |
| O=C(O)c1ccc(CCC(=O)c2ccc(O)cc2)cc1 [VI-30, 4-(3-(4-hydroxyphenyl)-3-oxopropyl)benzoic acid] | 1000 to 10000 nM |
| O=C(O)c1ccc(-c2nnc3cc(O)ccc3n2)c(F)c1 [II-20] | < 100 nM |
| O=C(O)c1ccc(-c2ccc3cc(O)cc(F)c3n2)cc1 [Compound I-54, 4-(8-fluoro-6-hydroxyquinolin-2-yl)benzoic acid] | < 100 nM |
| O=c1c(-c2ccc(-c3nnn[nH]3)cc2Cl)c(C(F)(F)F)oc2cc(O)ccc12 [IV-39] | < 100 nM |
| O=C(O)c1ccc(CSc2ccc(O)cc2)c(F)c1 [VI-24, 3-fluoro-4-(((4-hydroxyphenyl)thio)methyl)benzoic acid] | 100 to 1000 nM |
| Nc1cc(-c2ccc(C(=O)O)cc2)nc2ccc(O)cc12 [Compound I-51, 4-(4-amino-6-hydroxyquinolin-2-yl)benzoic acid] | 1000 to 10000 nM |
| O=C(O)c1ccc(CC(=O)c2ccc(O)cc2)c(F)c1 [VI-9, 3-fluoro-4-(2-(4-hydroxyphenyl)-2-oxoethyl)benzoic acid] | < 100 nM |
| Cc1cc(C(=O)O)ccc1-c1ccc2c(F)c(O)ccc2n1 [Compound I-58] | < 100 nM |
| O=C(O)c1ccc(CC(=O)c2ccc(O)c(F)c2F)cc1 [VI-5, 4-(2-(2,3-difluoro-4-hydroxyphenyl)-2-oxoethyl)benzoic acid] | < 100 nM |
| COc1c(-c2ccc(C(=O)O)cc2)ccc2cc(O)ccc12 [III-24, 4-(6-hydroxy-1-methoxynaphthalen-2-yl)benzoic acid] | < 100 nM |
| COc1cc(C(=O)O)ccc1-c1c(C(F)(F)F)oc2cc(O)ccc2c1=O [IV-20] | < 100 nM |
| O=C(O)c1ccc(COc2cc(F)c(O)cc2F)c(F)c1 [VI-22, 4-((2,5-difluoro-4-hydroxyphenoxy)methyl)-3-fluorobenzoic acid] | 100 to 1000 nM |
| COc1cc(-c2ccc3cc(O)ccc3n2)ccc1C(=O)O [Compound I-59, 4-(6-hydroxyquinolin-2-yl)-2-methoxybenzoic acid] | 100 to 1000 nM |
| O=C(O)c1ccc(-c2cc(F)c3c(F)c(O)ccc3c2)cc1 [III-42, 4-(4,5-difluoro-6-hydroxynaphthalen-2-yl)benzoic acid] | < 100 nM |
| O=C(O)c1ccc(-c2c(C(F)(F)F)oc3cc(O)ccc3c2=O)c(Cl)c1 [IV-15] | < 100 nM |
| O=C(O)[C@H]1CC[C@@H](c2nc3ccc(O)cc3cc2C(F)(F)F)CC1 [Compound I-44] | 1000 to 10000 nM |
| Cc1c(-c2ccc(C(=O)O)cc2)ncc2cc(O)ccc12 [II-25, 4-(7-hydroxy-4-methylisoquinolin-3-yl)benzoic acid] | 100 to 1000 nM |
| O=C(O)c1ccc(CS(=O)(=O)c2ccc(O)cc2)c(F)c1 [VI-26, 3-fluoro-4-(((4-hydroxyphenyl)sulfonyl)methyl)benzoic acid] | < 100 nM |

same assay, conditions: Table 7; GSNOR inhibition, IC50 range class a/b/c; read-out: IC50

| Structure (SMILES) | IC50 |
| --- | --- |
| CCOCCCn1c(-c2ccc(O)cc2)ccc1-c1ccc(C(=O)O)cc1 [VII-36, 4-(1-(3-ethoxypropyl)-5-(4-hydroxyphenyl)-1H-pyrrol-2-yl)benzoic acid] | < 100 nM |
| CCCCn1c(-c2ccc(O)cc2)ccc1-c1ccc(C(=O)O)s1 [VII-26, 5-(1-butyl-5-(4-hydroxyphenyl)-1H-pyrrol-2-yl)thiophene-2-carboxylic acid] | 100 to 1000 nM |
| O=C(O)c1cccc(-c2csc(-c3ccc(O)cc3)n2)c1 [VII-18, 3-(2-(4-hydroxyphenyl)thiazol-4-yl)benzoic acid] | 1000 to 10000 nM |
| O=C(O)c1ccc(-c2csc(-c3ccc(O)c(F)c3)n2)s1 [VII-3, 5-(2-(3-fluoro-4-hydroxyphenyl)thiazol-4-yl)thiophene-2-carboxylic acid] | < 100 nM |
| O=C(O)c1ccc(-c2cnc(-c3ccc(O)c(F)c3)s2)s1 [VII-10, 5-(2-(3-fluoro-4-hydroxyphenyl)thiazol-5-yl)thiophene-2-carboxylic acid] | < 100 nM |
| O=C(O)c1ccc(-c2ccc(-c3ccc(O)cc3)cc2)cc1 [VII-11, 4″-hydroxy-[1,1′:4′,1″-terphenyl]-4-carboxylic acid] | 100 to 1000 nM |
| O=C(O)c1ccc(-c2csc(-c3ccc(O)c(F)c3)n2)cc1 [VII-6, 4-(2-(3-fluoro-4-hydroxyphenyl)thiazol-4-yl)benzoic acid] | 100 to 1000 nM |
| O=C(O)c1ccc(-c2ccc(-c3ccc(O)cc3)s2)s1 [VII-12, 5′-(4-hydroxyphenyl)-2,2′-bithiophene-5-carboxylic acid] | 100 to 1000 nM |

same assay, conditions: Table 8; GSNOR inhibition, IC50 range class a/b/c; read-out: IC50

| Structure (SMILES) | IC50 |
| --- | --- |
| Cn1c(-c2ccc(C(=O)O)cc2)cc2ccc(O)cc2c1=O [VIII-11, 4-(7-hydroxy-2-methyl-1-oxo-1,2-dihydroisoquinolin-3-yl)benzoic acid] | 100 to 1000 nM |
| O=C(O)c1ccc(N2CCc3cc(O)ccc3C2)cc1 [VIII-6, 4-(6-hydroxy-3,4-dihydroisoquinolin-2(1H)-yl)benzoic acid] | 1000 to 10000 nM |
| CSc1nc2cc(O)ccc2c(=O)n1-c1ccc(C(=O)O)cc1 [VIII-1, 4-(7-hydroxy-2-(methylthio)-4-oxoquinazolin-3(4H)-yl)benzoic acid] | 1000 to 10000 nM |
| Oc1ccc2nc(-c3ccc(-c4nnn[nH]4)cc3)sc2c1 [VIII-5, 2-(4-(1H-tetrazol-5-yl)phenyl)benzo[d]thiazol-6-ol] | 100 to 1000 nM |
